Assay results: BindingDB's records for doi:10.7270/Q2B27SRF (Broad Institute, 2010)
Counter-ions that a name gives are not always drawn.

Target: Serine/threonine-protein kinase 33 (Homo sapiens, UniProt Q9BYT3)
Test: STK33 kinase inhibitors, dose response, biochemical, luminescence, cell-free, retest (AID 2821)

Chain of Serine/threonine-protein kinase 33 (Q9BYT3 whole entry): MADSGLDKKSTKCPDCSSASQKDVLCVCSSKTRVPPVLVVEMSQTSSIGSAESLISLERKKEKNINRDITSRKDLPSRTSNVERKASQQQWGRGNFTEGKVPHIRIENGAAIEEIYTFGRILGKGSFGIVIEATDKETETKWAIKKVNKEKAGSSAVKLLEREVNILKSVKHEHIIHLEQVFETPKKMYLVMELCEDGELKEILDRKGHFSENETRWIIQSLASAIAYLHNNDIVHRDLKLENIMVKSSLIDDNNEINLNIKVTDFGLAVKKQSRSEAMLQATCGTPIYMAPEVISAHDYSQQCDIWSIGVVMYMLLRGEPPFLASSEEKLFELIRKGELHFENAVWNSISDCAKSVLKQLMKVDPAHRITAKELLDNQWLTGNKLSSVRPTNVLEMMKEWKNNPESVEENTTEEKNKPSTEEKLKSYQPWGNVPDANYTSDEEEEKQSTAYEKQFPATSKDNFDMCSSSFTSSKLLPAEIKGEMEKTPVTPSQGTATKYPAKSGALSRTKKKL

Row | EC50 | Compound
1 | 11.5 µM | O=C1C=CC(=CCc2ccnc3ccccc23)C=C1 [MLS000705243]
2 | 10.1 µM | O=C(Nc1nc2ccccc2[nH]1)c1ccc(Br)o1 [SMR000352903]
3 | 14 µM | CCN1C=CC(=C2C(=O)c3ccccc3C2=O)C=C1 [2-(1-ethyl-4-pyridinylidene)indene-1,3-dione]
4 | 10.4 µM | CC1CCN(C2=NC(=O)/C(=C/c3ccc(O)cc3)S2)CC1 [MLS001205076]
5 | 22.2 µM | Cc1c(/C=C/C(=O)c2ccc(O)cc2)cnn1C [MLS000578554]
6 | 0.416 µM | CC(Oc1ccc2c(c1)c1ccnc3c4ccccc4c(=O)n2c13)C(=O)NCCN1CCOCC1 (stereo unspecified) [SMR000652046]
7 | 25.5 µM | NC(=O)c1sc2nc(-c3ccco3)ccc2c1N [3-Amino-6-furan-2-yl-thieno[2,3-b]pyridine-2-carboxylic acid amide]
8 | 8.14 µM | COc1ccc(O)c(-c2nc(N)nc(N)n2)c1 [(6Z)-6-[4,6-bis(azanyl)-1H-1,3,5-triazin-2-ylidene]-4-methoxy-cyclohexa-2,4-dien-1-one]
9 | 35.8 µM | CCCCCCCCCCCCCCCC[N+](C)(C)CCN(Cc1ccc(OC)cc1)c1ncccn1 [SMR001233380]
10 | 4.93 µM | COc1cc(N=CC2C(=O)Nc3ccccc32)cc(OC)c1OC (stereo unspecified)
11 | 12.4 µM | O=C1NC(=O)/C(=C/c2ccc(O)cc2)S1 [SMR000324608]
12 | 13.2 µM | CCC(Sc1ccc2nnc(-c3ccc(OC)c(OC)c3)n2n1)C(=O)O (stereo unspecified)
13 | 12 µM | COc1cccc(-c2onc3ccc(C(=O)/C=C/N(C)C)cc23)c1 [MLS001165915]
14 | 0.618 µM | C=CC(=O)Nc1ccc(CN2C(=O)N(c3c(Cl)c(OC)cc(OC)c3Cl)Cc3cnc(NCCCCN(CC)CC)nc32)cc1 [N-[4-[[3-[2,6-bis(chloranyl)-3,5-dimethoxy-phenyl]-7-[4-(diethylamino)butylamino]-2-oxidanylidene-4H-pyrimido[4,5-d]pyrimidin-1-yl]methyl]phenyl]prop-2-enamide]
15 | 23.4 µM | O=C(NCCCO)c1cc2c([nH]c3ccccc32)c(-c2ccccc2)n1 [MLS001214182]
16 | 7.05 µM | Nc1nc(N)nc(-c2cc(O)ccc2O)n1 [(6E)-6-(4,6-diamino-1H-1,3,5-triazin-2-ylidene)-4-hydroxycyclohexa-2,4-dien-1-one]
17 | > 120 µM | S=C(Nc1cccnc1)Nc1cccc2cnccc12 [SMR000348842]
18 | 21.8 µM | Cc1ccc(NC(=O)c2cccc(C(=O)Nc3ccc(C)cc3C(=O)O)c2)c(C(=O)O)c1 [The compound has not trivial name.]
19 | > 120 µM | Cc1ccc(NC(=O)COC(=O)c2cc(Cl)ccc2Cl)c(Br)c1 [SMR000259824]
20 | 26.6 µM | c1cncc(Nc2nc(-c3cccnc3)cs2)c1 [SMR000077836]
21 | 5.04 µM | CCNc1nc(N)nc(-c2cc(Cl)ccc2O)n1 [(6E)-6-[6-amino-4-(ethylamino)-1H-1,3,5-triazin-2-ylidene]-4-chloro-1-cyclohexa-2,4-dienone]
22 | 11.8 µM | COC(=O)c1cccc2c1-c1ccccc1C2N=O (stereo unspecified) [(9Z)-9-hydroximinofluorene-4-carboxylic acid methyl ester]
23 | > 120 µM | CN1CCCC1CCNc1ccc2oc3ccccc3c(=O)c2c1 (stereo unspecified) [MLS001249997]

Row | EC50 | Compound
24 | 12.8 µM | Oc1cc(O)cc(/C=C/c2ccc(O)c(O)c2)c1
25 | > 120 µM | CN(C)c1nc2sc3c(c2c(=O)n1C)CC(C)(C)OC3 [MLS000071412]
26 | 27.1 µM | c1cncc(C2Nc3ccccc3-c3nc4ccccc4n32)c1 (stereo unspecified) [MLS000098034]
27 | 0.936 µM | COc1cc(C=C2SC(N)=NC2=O)ccc1O [(5Z)-2-azanyl-5-[(3-methoxy-4-oxidanyl-phenyl)methylidene]-1,3-thiazol-4-one]
28 | > 120 µM | CNC(=O)c1cnc2ccc(S(=O)(=O)Nc3ccccc3F)cc2c1O
29 | 16 µM | O=C(Nc1cccc(-c2cn3cccnc3n2)c1)c1ccc(Br)o1 [5-bromanyl-N-(3-imidazo[1,2-a]pyrimidin-2-ylphenyl)furan-2-carboxamide]
30 | 16.7 µM | CCn1c2ccccc2c(=O)c2ccccc21 [10-ethyl-9-acridinone]
31 | 6.32 µM | CN(C)C/C=C/C(=O)Nc1cccc(-c2c[nH]c3ncnc(Oc4ccc(NC(=O)CC(=O)Nc5ccc(F)cc5)cc4F)c23)c1
32 | 8.93 µM | CCCN1C=CC(=C2C(=O)c3ccccc3C2=O)C=C1 [2-(1-propyl-4-pyridinylidene)indene-1,3-dione]
33 | 25.8 µM | Oc1ccc(C=Nn2c(-c3ccccc3)n[nH]c2=S)cc1 [SMR000513437]
34 | 24 µM | Cc1cc(N2C(=O)c3ccc(C(=O)Nc4ccc(O)cc4C(=O)O)cc3C2=O)no1 [5-hydroxy-2-[[[2-(5-methyl-3-isoxazolyl)-1,3-dioxo-5-isoindolyl]-oxomethyl]amino]benzoic acid]
35 | 42.1 µM | O=C(Nc1nccs1)c1ccc(N2CCOCC2)c([N+](=O)[O-])c1 [4-morpholin-4-yl-3-nitro-N-(1,3-thiazol-2-yl)benzamide]
36 | 8.09 µM | CS(=O)(=O)Nc1ccc(-c2cc(C=C3SC(N)=NC3=O)c[nH]c2=O)cc1 [N-[4-[5-[(Z)-(2-azanyl-4-oxidanylidene-1,3-thiazol-5-ylidene)methyl]-2-oxidanylidene-1H-pyridin-3-yl]phenyl]methanesulfonamide]
37 | 5.29 µM | COc1ccc(-c2onc3ccc(C(=O)/C=C/N(C)C)cc23)cc1 [(E)-3-(dimethylamino)-1-[3-(4-methoxyphenyl)-2,1-benzoxazol-5-yl]-2-propen-1-one]
38 | > 120 µM | Cc1cc(C=C2C(=O)c3ccccc3C2=O)c(C)n1-c1cccc(C(=O)O)c1 [3-[3-[[1,3-bis(oxidanylidene)inden-2-ylidene]methyl]-2,5-dimethyl-pyrrol-1-yl]benzoic acid]
39 | 14.3 µM | Oc1ccccc1-c1nc(NCCN2CCOCC2)c2ccccc2n1 [(6E)-6-[4-(2-morpholin-4-ylethylamino)-1H-quinazolin-2-ylidene]cyclohexa-2,4-dien-1-one]
40 | 4.01 µM | O=c1ccc2cc3c([nH]c4ccc(Br)cc43)oc-2c1O [9-bromo-4-hydroxy-6H-[1]benzopyrano[2,3-b]indol-3-one]
41 | 22 µM | COc1cc(C=Nn2c(C3CCCCC3)n[nH]c2=S)ccc1O [(4E)-4-[[(3-cyclohexyl-5-sulfanylidene-1H-1,2,4-triazol-4-yl)amino]methylidene]-2-methoxy-cyclohexa-2,5-dien-1-one]
42 | 23.8 µM | CN(C)c1cc2c(c(N(C)C)c1)C(=O)c1ccccc1C2=O [1,3-bis(dimethylamino)-9,10-anthraquinone]
43 | 29.1 µM | COc1ccc(C(=O)ON=C(C)c2cccs2)cc1 [MLS000544771]
44 | 8.49 µM | N#CC(C(=O)c1ccco1)c1nc2ccccc2[nH]1 (stereo unspecified) [SMR000305206]
45 | > 120 µM | CCOc1ccc(-c2ccc(SC)nn2)cc1 [3-(4-ethoxyphenyl)-6-(methylthio)pyridazine]
46 | > 120 µM | CCCCCCCCCCCCCCCC[n+]1cccc2ccccc21 [1-cetylquinolin-1-ium;iodide]

Row | EC50 | Compound
47 | > 120 µM | COc1ccc(CNc2nc3ccccc3s2)cc1OC [SMR000523783]
48 | 19.3 µM | Cc1cc(C=C2C(=O)c3ccccc3C2=O)c(C)n1-c1ccc(C(=O)O)cc1 [4-[3-[(1,3-dioxo-2-indenylidene)methyl]-2,5-dimethyl-1-pyrrolyl]benzoic acid]
49 | > 120 µM | CCOc1ccc(Nc2nc(N)c3ccccc3n2)cc1 [N2-(4-ethoxyphenyl)quinazoline-2,4-diamine;hydrochloride]
50 | 8.38 µM | COc1cc(C(=O)NC2CCN(C)CC2)ccc1Nc1ncc2c(n1)N(C1CCC(O)CC1)CCC(=O)N2C (stereo unspecified) [MLS002232305]
51 | 9.63 µM | O=C1/C(=C/c2ccc(O)c(O)c2)Oc2cc(O)ccc21 [MLS000863576]
52 | 9.23 µM | COc1cc(C=NNC2=c3ccccc3=NC2=O)ccc1O
53 | 7.93 µM | COc1ccccc1NC(=O)Nc1ncccc1C [MLS000072334]
54 | 22.7 µM | COc1cccc(C(=O)ON=C(N)c2ccccn2)c1 [The compound has not trivial name.]
55 | 22.7 µM | Cc1cc(C(=O)O)ccc1N=Cc1c(O)ccc2ccccc12 [4-[(2-Hydroxy-naphthalen-1-ylmethylene)-amino]-3-methyl-benzoic acid]
56 | 5.66 µM | CCN(CC)c1ccc(/C=C2\C(=O)c3ccc(C(=O)O)cc3C2=O)cc1 [2-[1-(4-Diethylamino-phenyl)-meth-(E)-ylidene]-1,3-dioxo-indan-5-carboxylic acid]
57 | 23.1 µM | OCCN1CCN(c2nc(-c3ccccc3O)nc3ccccc23)CC1 [MLS001165184]
58 | 9.79 µM | CCn1cc(/C=C/C(=O)c2ccc(O)cc2)c(C)n1 [(E)-3-(1-ethyl-3-methyl-4-pyrazolyl)-1-(4-hydroxyphenyl)-2-propen-1-one]
59 | 2.1 µM | O=C(Nc1ccccc1-c1nc2ccccc2[nH]c1=O)c1cccs1 [N-[2-(3-oxo-4H-quinoxalin-2-yl)phenyl]-2-thiophenecarboxamide]
60 | 9.41 µM | CCc1ccc(NC(S)=Nc2ccc3c[nH]nc3c2)cc1 [SMR000261301]
61 | 38.7 µM | CN(C)S(=O)(=O)c1cccc(NC(=S)Nc2ccc3cn[nH]c3c2)c1 [MLS001033726]
62 | 10.3 µM | O=C1c2ccccc2C(=O)C1c1ccncc1 [2-(1H-pyridin-4-ylidene)indane-1,3-quinone]
63 | 1.75 µM | COc1cc(C=CC(=O)CC(=O)C=Cc2ccc(O)cc2)ccc1O [demethoxycurcumin]
64 | < 0.1 µM | Nc1nc(-c2cc(O)ccc2[N+](=O)[O-])cc(-c2ccccc2)c1[N+](=O)[O-] [SMR000504332]
65 | 11.3 µM | O=C1Nc2ccccc2C1C=Nc1ccc2c(c1)OCO2 (stereo unspecified) [(3Z)-3-[(1,3-benzodioxol-5-ylamino)methylidene]-1H-indol-2-one]
66 | > 120 µM | COc1cc(C2c3sc(=O)[nH]c3Sc3c2c(O)n(-c2ccc(C)cc2)c3O)ccc1O (stereo unspecified) [SMR000414898]
67 | > 120 µM | COC1(OC)N=C(N)C2(C#N)C(c3ccc4c(c3)OCO4)C12C#N (stereo unspecified)
68 | 3.76 µM | CC(=O)N(C)c1ccc(N=Cc2c(O)ccc3ccccc23)cc1 [MLS001212262]

Row | Compound | EC50
69 | CCN(CC)C(=O)c1ccc(NC(=O)Nc2ccccc2F)cc1 [SMR000376874] | > 120 µM
70 | O=C1Nc2ccccc2C1=Cc1cnc[nH]1 [SMR000180717] | 7.94 µM
71 | Oc1cc(O)cc(/C=C/c2ccc(O)cc2O)c1 [(oxyresveratrol)4-[(E)-2-(3,5-dihydroxyphenyl)vinyl]benzene-1,3-diol] | 9.66 µM
